The results in this text go back to PubChem BioAssay AID504672 (Sanford-Burnham Center for Chemical Genomics, 2011).

Each structure is given as a SMILES string. Active and inactive are the calls of the source. Cut-off read from the data, not from the text of the source: active = IC50 below about 71 µM; inactive = the rest.

The subject of the assay is S. cerevisiae tim10 strain, luminescence counterscreen. As to the kind of experiment: TIM10 strain luminescence inhibitors – S. cerevisiae, uHTS hits, counter-screen for tim23-1 inhibitor project, dose response (AID 504672).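 Note: yeast grew roughly 22 hours at 25 °C before the luminescence read.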 In general terms: A counterscreen serves to expose hits that act by an unwanted route or on another target.

In the case of `COc1ccc(NC(=O)Nc2nc3c(s2)CCCC3)cc1`, the half-inhibitory concentration (IC50) (usually the concentration that inhibits the measured activity by half) is 14.5 µM. Consider `O=C(Nc1cccc(Br)c1)C1CCCC1`, for which the IC50 was 14.1 µM. The result for `CC1=CC(C)(C)N(C(=O)c2ccc(F)cc2)c2cc3c(cc21)OCO3` reads 3.84 µM. The result for `Oc1ccc2ccccc2c1/C=N/c1nccs1` reads 8.43 µM; that for `CCCCCCn1c(=O)c(-c2ccccc2)c(O)c2ccccc21`, 11.4 µM.

As for `O=C(CCl)Nc1cccc(-c2cnc3ccccc3n2)c1`, the IC50 is 14.6 µM. Regarding `O=C(N/N=C/C=C\c1ccco1)c1cccs1`, the IC50 was 70 µM. The result for `CCOC(=O)c1cccc(OC(=O)CCNC(=O)c2ccc(Cl)cc2)c1` reads 26.9 µM; that for `Cc1ccc(S(=O)(=O)N[C@@H](Cc2ccccc2)C(=O)CCl)cc1`, 0.64 µM. For the molecule `c1ccc(-c2ncc(-c3ccn[nH]3)s2)cc1`, the 50% inhibitory concentration (IC50) is 3.88 µM. To `Cn1c(C=O)c(C#Cc2ccccc2)c2ccccc21` belongs 5.53 µM.

With `Cc1nc2scc(C)n2c(=O)c1S(=O)(=O)Nc1ccc(N2CCOCC2)cc1`, the IC50 was > 100 µM (inactive).

Turning to `Cc1ccccc1[C@@]1(C)ON(c2ccccc2C(F)(F)F)C1=O`, the IC50 was 3.74 µM. As to `C[C@@]12C(=O)Nc3ccc(Cl)cc3C(=O)N1[C@H]1c3ccccc3OC[C@@H]1[C@@H]2c1ccccc1`, the IC50 was 3.46 µM. Consider `Cc1cc(Nc2ccccc2)nn1C(=O)c1ccccc1`, for which the concentration for half-maximal inhibition (IC50) was 11.3 µM. To `O=c1oc(Cl)c(Cl)c2ccccc12` belongs 20.1 µM; to `Cc1ccc2nc(-c3ccc(N)cc3)sc2c1`, 17.4 µM. The result for `COc1ccc(OC)c(-c2csc(NC(=O)Cc3ccc(F)cc3)n2)c1` reads 27.7 µM. To `O=C1c2ccccc2-c2n[nH]c3cccc1c23` belongs 20.2 µM. As for `C/C(=N\Nc1ccc([N+](=O)[O-])cc1)c1ccc(O)cc1`, the IC50 is 2.32 µM.

With `O=C(NCCCc1ccccc1)Nc1cccc(Cl)c1`, the IC50 is 5.13 µM. With `COc1ccc(C(=O)COC(=O)c2cncc(Br)c2)cc1`, the IC50 is 15.5 µM.

Turning to `O=C(CSc1cccc[n+]1[O-])CSc1cccc[n+]1[O-]`, the IC50 was 6.94 µM. Regarding `CC(C)c1nc(NCCO)c(C#N)c2c1CCCC2`, the half-inhibitory concentration (IC50) was 18.5 µM. As for `CC[C@@]1(c2ccccc2OC)ON(c2ccccc2C(F)(F)F)C1=O`, the IC50 is 4.27 µM.

`CCn1c(N2CCN(S(=O)(=O)c3ccc(OC)cc3)CC2)nc2ccccc21`: the IC50 was 58 µM. `CCOC(=O)c1ccc(NC(=O)CSc2nc(=O)n3cccc(C)c3n2)cc1`: the half-inhibitory concentration (IC50) is 53.6 µM. To `O=C(c1cccnc1)C1Cc2ccccc2C1=O` (stereo not drawn) belongs 27.8 µM.

As for `COC(=O)c1c(-c2ccc(S(C)(=O)=O)cc2)sc2ccc(OC)cc12`, the IC50 is 11.4 µM. The result for `CCN(CC)c1ccc(/C=N/NC(=O)c2ccc3c(c2)OCCO3)cc1` reads 11.5 µM; that for `Cc1ccc(S(=O)(=O)Oc2ccccc2C=C2C(=O)N(C)C(=O)N(C)C2=O)cc1`, 4.57 µM; that for `O=C(Oc1cccc2c(O)cccc12)c1ccccc1`, 4.84 µM.

`CC1CCN(c2ccc(-c3cccs3)nn2)CC1`: the 50% inhibitory concentration (IC50) was 8.39 µM.

For `O=C(Nc1ccc(-c2cn3ccccc3n2)cc1)c1ccco1`, the 50% inhibitory concentration (IC50) was 17.5 µM. The result for `Cc1csc2nc(O)c(C(=O)NCCCc3ccccc3)c(=O)n12` reads 8.44 µM. With `N#C/C(=C/c1ccc(N2CCOCC2)o1)c1nc2ccccc2[nH]1`, the IC50 was 26.6 µM. In the case of `COc1cccc(NC(=O)c2ccccc2)c1`, the half-inhibitory concentration (IC50) is 3.42 µM.

Regarding `O=[N+]([O-])c1ccccc1S(=O)(=O)Nc1cccc2cccnc12`, the IC50 was 13.9 µM. The result for `COc1ccc(-c2ccc(NC(=O)c3ccco3)cc2)nn1` reads 10.5 µM.

Turning to `C/C(=N\Nc1nc2ccccc2s1)c1cccs1`, the IC50 was 17 µM.

With `Cc1[nH]c2ccccc2c1C(=O)/C=C/c1ccccc1`, the half-maximal inhibitory concentration (IC50) was 12.9 µM. With `COc1ccc(C(=O)c2sc(Nc3ccccc3F)nc2N)cc1`, the IC50 was 16.5 µM. The result for `CC(C)(C)c1csc(NC(=O)c2ccc(Br)o2)n1` reads 16.7 µM.
